# According to patent publication US10131644B2, “Aryl sultam derivatives as RORc modulators” (Genentech, Inc., priority 2014, dated 2018):
# Target: T1, RORc (Homo sapiens, UniProt P51449)
# T1 sequence (P51449 269-508 limits assumed): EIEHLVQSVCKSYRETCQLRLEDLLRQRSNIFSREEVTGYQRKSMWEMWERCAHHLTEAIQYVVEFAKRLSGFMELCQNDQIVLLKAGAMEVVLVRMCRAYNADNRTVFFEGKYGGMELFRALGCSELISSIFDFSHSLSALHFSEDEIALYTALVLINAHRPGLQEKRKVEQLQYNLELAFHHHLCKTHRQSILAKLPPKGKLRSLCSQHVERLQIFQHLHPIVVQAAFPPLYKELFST
# Assay: In vitro RORc ligand binding assay (25-[3H]hydroxycholesterol displacement)
# Conditions: IC50, IC50 values for RORc; unit inferred
row,IC50,Structure (SMILES)
1,0.0767 µM,"C[C@H]1CC[C@H](c2ccccc2)S(=O)(=O)N1Cc1ccc(C2(CNS(C)(=O)=O)CCOCC2)cc1F [Compound 71, N-[[4-[3-fluoro-4-[[(3S,6R)-3-methyl-1,1-dioxo-6-phenyl-thiazinan-2-yl]methyl]phenyl]tetrahydropyran-4-yl]methyl]methanesulfonamide]"
2,0.0087 µM,"C[C@H]1CC[C@H](c2ccccc2)S(=O)(=O)N1Cc1ccc(C2(/C=C/C#N)CCOCC2)cc1F [Compound 72, (E)-3-[4-[3-fluoro-4-[[(3S,6R)-3-methyl-1,1-dioxo-6-phenyl-thiazinan-2-yl]methyl]phenyl]tetrahydropyran-4-yl]prop-2-enenitrile]"
3,0.0532 µM,"COC(=O)NCC1(c2ccc(CN3[C@@H](C)CC[C@H](c4ccccc4)S3(=O)=O)c(F)c2)CCOCC1 [Compound 73, methyl N-[[4-[3-fluoro-4-[[(3S,6R)-3-methyl-1,1-dioxo-6-phenyl-thiazinan-2-yl]methyl]phenyl]tetrahydropyran-4-yl]methyl]carbamate]"
4,0.141 µM,"C[C@H]1CC[C@H](c2ccccc2)S(=O)(=O)N1Cc1ccc(C2(CNC(=O)OC(C)(C)C)CCOCC2)cc1F [Compound 74, tert-butyl N-[[4-[3-fluoro-4-[[(3S,6R)-3-methyl-1,1-dioxo-6-phenyl-thiazinan-2-yl]methyl]phenyl]tetrahydropyran-4-yl]methyl]carbamate]"
5,0.639 µM,"C[C@H]1CC[C@H](c2ccccc2)S(=O)(=O)N1Cc1ccc(C2(CN)CCOCC2)cc1F [Compound 75, [4-[3-fluoro-4-[[(3S,6R)-3-methyl-1,1-dioxo-6-phenyl-thiazinan-2-yl]methyl]phenyl]tetrahydropyran-4-yl]methanamine]"
6,0.0321 µM,"C[C@H]1CC[C@H](c2ccccc2)S(=O)(=O)N1Cc1ccc(C2(C(C)(C)O)CCOCC2)cc1F [Compound 76, 2-[4-[3-fluoro-4-[[(3S,6R)-3-methyl-1,1-dioxo-6-phenyl-thiazinan-2-yl]methyl]phenyl]tetrahydropyran-4-yl]propan-2-ol]"
7,0.0312 µM,"C[C@H]1CC[C@H](c2ccccc2)S(=O)(=O)N1Cc1ccc(C2(CC#N)CCOCC2)cc1F [Compound 77, 2-[4-[3-fluoro-4-[[(3S,6R)-3-methyl-1,1-dioxo-6-phenyl-thiazinan-2-yl]methyl]phenyl]tetrahydropyran-4-yl]acetonitrile]"
8,0.0137 µM,"C[C@H]1CC[C@H](c2ccccc2)S(=O)(=O)N1Cc1ccc(C2(CCO)CCOCC2)cc1F [Compound 78, 2-[4-[3-fluoro-4-[[(3S,6R)-3-methyl-1,1-dioxo-6-phenyl-thiazinan-2-yl]methyl]phenyl]tetrahydropyran-4-yl]ethanol]"
9,0.0049 µM,"CCOC(=O)CCC1(c2ccc(CN3[C@@H](C)CC[C@H](c4ccccc4)S3(=O)=O)c(F)c2)CCOCC1 [Compound 79, ethyl 3-[4-[3-fluoro-4-[[(3S,6R)-3-methyl-1,1-dioxo-6-phenyl-thiazinan-2-yl]methyl]phenyl]tetrahydropyran-4-yl]propanoate]"
10,0.104 µM,"CC(=O)N(C)CC1(c2ccc(CN3[C@@H](C)CC[C@H](c4ccccc4)S3(=O)=O)c(F)c2)CCOCC1 [Compound 80, N-[[4-[3-fluoro-4-[[(3S,6R)-3-methyl-1,1-dioxo-6-phenyl-thiazinan-2-yl]methyl]phenyl]tetrahydropyran-4-yl]methyl]-N-methyl-acetamide]"
11,0.0062 µM,"C[C@H]1CC[C@H](c2ccccc2)S(=O)(=O)N1Cc1ccc(C2(CCCO)CCOCC2)cc1F [Compound 81, 3-[4-[3-fluoro-4-[[(3S,6R)-3-methyl-1,1-dioxo-6-phenyl-thiazinan-2-yl]methyl]phenyl]tetrahydropyran-4-yl]propan-1-ol]"
12,0.0705 µM,"COCCOCC1(c2ccc(CN3[C@@H](C)CC[C@H](c4ccccc4)S3(=O)=O)c(F)c2)CCOCC1 [Compound 82, (3S,6R)-2-[[2-fluoro-4-[4-(2-methoxyethoxymethyl)tetrahydropyran-4-yl]phenyl]methyl]-3-methyl-6-phenyl-thiazinane 1,1-dioxide]"
